Reference: article PMC3091528 (Glycobiology, 2011)

Tests used:
mouse LSECtin CRD = target: T1, mouse LSECtin CRD (Mus musculus, UniProt Q8BNX1); type: binding
T1 sequence (Q8BNX1 161-294): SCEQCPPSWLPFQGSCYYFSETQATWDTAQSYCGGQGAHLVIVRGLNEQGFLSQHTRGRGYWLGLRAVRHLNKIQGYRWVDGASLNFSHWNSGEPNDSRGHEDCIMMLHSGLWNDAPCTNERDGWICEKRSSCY

human LSECtin CRD = target: T2, human LSECtin CRD (Homo sapiens, UniProt Q6UXB4); type: binding
T2 sequence (Q6UXB4 165-293 limits assumed): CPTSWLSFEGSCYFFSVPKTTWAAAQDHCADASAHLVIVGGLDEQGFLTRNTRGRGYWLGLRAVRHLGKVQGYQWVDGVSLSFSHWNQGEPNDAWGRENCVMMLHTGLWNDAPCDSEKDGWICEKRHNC

CC(=O)N[C@H]1[C@H](O[C@@H]2C(O)O[C@H](CO)[C@@H](O)[C@@H]2O)O[C@H](CO)[C@@H](O)[C@@H]1O (some centres unmarked) [GlcNAcβ1-2Man]
Ki (mouse LSECtin CRD): 10.2 ± 0.8 µM | Ki (human LSECtin CRD): 1.1 ± 0.5 µM
